From PubChem BioAssay (NCI)
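Exposure lasted 48 hours, with cells grown in 96-well plates and compounds tested at five concentrations. TGI: total growth inhibition.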

What was measured:
Assay in all cases: NCI-60 cell line screen, 48 h
[1] = tested on: SF-268 CNS
[2] = tested on: HT29 colon
[3] = tested on: MDA-MB-435
[4] = tested on: OVCAR-3 ovarian
[5] = tested on: RPMI-8226 leukemia
[6] = tested on: HL-60(TB) leukemia
[7] = tested on: HOP-92 NSCLC
[8] = tested on: IGROV1 ovarian
[9] = tested on: OVCAR-4 ovarian
[10] = tested on: OVCAR-8 ovarian
[11] = tested on: MOLT-4 leukemia
[12] = tested on: CCRF-CEM leukemia
[13] = tested on: 786-0 renal
[14] = tested on: DU-145 prostate
[15] = tested on: SF-295 CNS
[16] = tested on: HCT-116 colon
[17] = tested on: UO-31 renal
[18] = tested on: NCI/ADR-RES ovarian
[19] = tested on: MDA-MB-231 breast
[20] = tested on: NCI-H23 lung

| SMILES | TGI [1] | TGI [2] | TGI [3] | TGI [4] | TGI [5] | TGI [6] | TGI [7] | TGI [8] | TGI [9] | TGI [10] | TGI [11] | TGI [12] | TGI [13] | TGI [14] | TGI [15] | TGI [16] | TGI [17] | TGI [18] | TGI [19] | TGI [20] |
| --- | --- | --- | --- | --- | --- | --- | --- | --- | --- | --- | --- | --- | --- | --- | --- | --- | --- | --- | --- | --- |
| O=c1oc2ccc([N+](=O)[O-])cc2c(Nc2ccc3c(c2)S(=O)(=O)c2ccccc2O3)c1[N+](=O)[O-] | > 100 µM | > 100 µM | > 100 µM | > 100 µM | > 100 µM | > 100 µM | > 100 µM | > 100 µM | > 100 µM | > 100 µM | > 100 µM | > 100 µM | > 100 µM | > 100 µM | > 100 µM | > 100 µM | > 100 µM | > 100 µM | > 100 µM | > 100 µM |
| Cc1c(C)c(S(=O)(=O)N(CCCCCON)OCCCN)c(C)c2c1OC(C)(C)CC2 | 30.5 µM | 22.2 µM | 24.8 µM | 28.7 µM | 32 µM | 17.3 µM | 23 µM | 23.4 µM | 21.5 µM | 23.9 µM | 30 µM | 3.47 µM | > 100 µM | 17.5 µM | 29.3 µM | > 100 µM | 30.2 µM | 31 µM | 30.4 µM | 29.6 µM |
| COc1cc(C(=O)Oc2c(C#N)sc3c2c(=O)n(-c2ccccc2)c(=S)n3-c2ccccc2)cc(OC)c1OC | 84.2 µM | 22.4 µM | 36.8 µM | > 100 µM | 28.2 µM | 41.3 µM | 64.4 µM | 41 µM | 80.9 µM | 59.2 µM | 40.6 µM | 28.9 µM | > 100 µM | 42.3 µM | 27.9 µM | 35.5 µM | – | 41.3 µM | 77.9 µM | 38.9 µM |
| COc1ccc(CCNC(=O)[C@H]2CCCC[C@@H]2CCO)cc1OC | > 100 µM | > 100 µM | > 100 µM | > 100 µM | > 100 µM | > 100 µM | > 100 µM | > 100 µM | > 100 µM | > 100 µM | > 100 µM | > 100 µM | > 100 µM | > 100 µM | > 100 µM | > 100 µM | > 100 µM | > 100 µM | > 100 µM | > 100 µM |
| CN(C)CC1CN=C(NC(=O)Nc2ccccc2)O1 (stereo not drawn) | > 100 µM | > 100 µM | > 100 µM | – | > 100 µM | > 100 µM | > 100 µM | > 100 µM | > 100 µM | > 100 µM | > 100 µM | > 100 µM | > 100 µM | > 100 µM | > 100 µM | > 100 µM | > 100 µM | > 100 µM | > 100 µM | > 100 µM |
| N#Cc1c(N2CCOCC2)[nH]c(=O)c(C(c2c(Cl)cccc2Cl)c2c(O)c(C#N)c(N3CCOCC3)[nH]c2=O)c1O | 51.1 µM | 28.9 µM | 30.2 µM | 30.4 µM | 60.8 µM | 29.3 µM | 37.8 µM | 35.3 µM | 32.9 µM | 34.1 µM | 36.2 µM | 66.8 µM | > 100 µM | 69.2 µM | > 100 µM | > 100 µM | 33.5 µM | > 100 µM | 30.4 µM | 32.8 µM |
